From patent US11109593B2, “Isoxazolin-5-one derivative and herbicide containing same as active ingredient” (HOKKO CHEMICAL INDUSTRY CO., LTD., priority 2017, dated 2021)

What was measured:
Type in all cases: in vivo
Echinochloa crus-galli [1] = test: Test Example 1: herbicidal effect test by treatment of rice paddy soil (immediately after seeding); conditions: 120 g/10a active ingredient, dry weight vs untreated area, 14 days after treatment
Outline: (§1)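 Puddled, fertilized (N:P:K=17:17:17) paddy soil in Wagner pots; seeds sown 0–1 cm deep, flooded to about 3 cm. Emulsifiable formulations diluted in water and dropped into the water immediately after seeding at 120 g active ingredient per 10 ares; greenhouse. Herbicidal rate from dry weight vs untreated at 14 days.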

Scirpus juncoides [2] = test: as above; conditions: 120 g/10a active ingredient, dry weight vs untreated area, 14 days after treatment
Outline: as §1

[3] = test system: broad leaf weeds (Lindernia pyxidaria and Monochoria vaginalis); test: as above; conditions: 120 g/10a active ingredient, dry weight vs untreated area, 14 days after treatment
Outline: as §1

Echinochloa crus-galli [4] = test: Test Example 2: herbicidal effect test by treatment during growing period in paddy rice cultivation (seven days after seeding); conditions: 120 g/10a active ingredient, assessed 14 days after treatment, dry weight vs untreated area
Outline: (§2)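 Post-emergence paddy water application: compounds were formulated as emulsions, diluted and dropped into flooded pots seven days after sowing at a rate equivalent to 120 g per 10 ares. Efficacy was taken as dry-weight reduction relative to untreated controls after 14 days.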

Scirpus juncoides [5] = test: as above; conditions: 120 g/10a active ingredient, assessed 14 days after treatment, dry weight vs untreated area
Outline: as §2

[6] = test system: broad leaf weeds (Lindernia pyxidaria and Monochoria vaginalis); test: as above; conditions: 120 g/10a active ingredient, assessed 14 days after treatment, dry weight vs untreated area
Outline: as §2

Cc1c(Cc2ccccc2NS(=O)(=O)C(F)(F)F)c(=O)on1C(C)c1ccc(OC(F)(F)F)cc1 (stereo not shown) [Compound 1-209]
Herbicidal rate (%) Echinochloa crus-galli (Echinochloa crus-galli [1]): 90% | Herbicidal rate (%) Scirpus juncoides (Scirpus juncoides [2]): 70% | Herbicidal rate (%) Lindernia pyxidaria [3]: 60% | Herbicidal rate (%) Monochoria vaginalis [3]: 60% | Herbicidal rate (%) Echinochloa crus-galli (Echinochloa crus-galli [4]): 40% | Herbicidal rate (%) Scirpus juncoides (Scirpus juncoides [5]): 90% | Herbicidal rate (%) Lindernia pyxidaria [6]: 60% | Herbicidal rate (%) Monochoria vaginalis [6]: 80%

C#CCn1oc(=O)c(Cc2ccccc2N(S(=O)(=O)C(F)(F)F)S(=O)(=O)C(F)(F)F)c1C [Compound 1-988]
Herbicidal rate (%) Echinochloa crus-galli (Echinochloa crus-galli [1]): 90% | Herbicidal rate (%) Scirpus juncoides (Scirpus juncoides [2]): 90% | Herbicidal rate (%) Lindernia pyxidaria [3]: 100% | Herbicidal rate (%) Monochoria vaginalis [3]: 100% | Herbicidal rate (%) Echinochloa crus-galli (Echinochloa crus-galli [4]): 90% | Herbicidal rate (%) Scirpus juncoides (Scirpus juncoides [5]): 90% | Herbicidal rate (%) Lindernia pyxidaria [6]: 100% | Herbicidal rate (%) Monochoria vaginalis [6]: 100%

CCCOC(=O)N(c1ccccc1Cc1c(C)n(C(C)COC)oc1=O)S(=O)(=O)C(F)(F)F (stereo not shown) [Compound 1-634]
Herbicidal rate (%) Echinochloa crus-galli (Echinochloa crus-galli [1]): 90% | Herbicidal rate (%) Scirpus juncoides (Scirpus juncoides [2]): 90% | Herbicidal rate (%) Lindernia pyxidaria [3]: 90% | Herbicidal rate (%) Monochoria vaginalis [3]: 90% | Herbicidal rate (%) Echinochloa crus-galli (Echinochloa crus-galli [4]): 90% | Herbicidal rate (%) Scirpus juncoides (Scirpus juncoides [5]): 90% | Herbicidal rate (%) Lindernia pyxidaria [6]: 90% | Herbicidal rate (%) Monochoria vaginalis [6]: 90%

Cc1c(Cc2ccccc2N(S(=O)(=O)C(F)(F)F)S(=O)(=O)C(F)(F)F)c(=O)on1Cc1ccc(F)cc1F [Compound 1-1026]
Herbicidal rate (%) Echinochloa crus-galli (Echinochloa crus-galli [1]): 100% | Herbicidal rate (%) Scirpus juncoides (Scirpus juncoides [2]): 90% | Herbicidal rate (%) Lindernia pyxidaria [3]: 100% | Herbicidal rate (%) Monochoria vaginalis [3]: 100% | Herbicidal rate (%) Echinochloa crus-galli (Echinochloa crus-galli [4]): 60% | Herbicidal rate (%) Scirpus juncoides (Scirpus juncoides [5]): 80% | Herbicidal rate (%) Lindernia pyxidaria [6]: 100% | Herbicidal rate (%) Monochoria vaginalis [6]: 90%

Cc1c(Cc2ccccc2NS(=O)(=O)C(F)(F)F)c(=O)on1C(C)c1ccccc1Cl (stereo not shown) [Compound 1-205]
Herbicidal rate (%) Echinochloa crus-galli (Echinochloa crus-galli [1]): 100% | Herbicidal rate (%) Scirpus juncoides (Scirpus juncoides [2]): 90% | Herbicidal rate (%) Lindernia pyxidaria [3]: 100% | Herbicidal rate (%) Monochoria vaginalis [3]: 100% | Herbicidal rate (%) Echinochloa crus-galli (Echinochloa crus-galli [4]): 50% | Herbicidal rate (%) Scirpus juncoides (Scirpus juncoides [5]): 80% | Herbicidal rate (%) Lindernia pyxidaria [6]: 90% | Herbicidal rate (%) Monochoria vaginalis [6]: 90%

Cc1c(Cc2ccccc2NS(=O)(=O)C(F)(F)F)c(=O)on1Cc1ccc(F)cc1F [Compound 1-199]
Herbicidal rate (%) Echinochloa crus-galli (Echinochloa crus-galli [1]): 100% | Herbicidal rate (%) Scirpus juncoides (Scirpus juncoides [2]): 90% | Herbicidal rate (%) Lindernia pyxidaria [3]: 100% | Herbicidal rate (%) Monochoria vaginalis [3]: 100% | Herbicidal rate (%) Echinochloa crus-galli (Echinochloa crus-galli [4]): 90% | Herbicidal rate (%) Scirpus juncoides (Scirpus juncoides [5]): 80% | Herbicidal rate (%) Lindernia pyxidaria [6]: 80% | Herbicidal rate (%) Monochoria vaginalis [6]: 80%

Cc1c(Cc2ccccc2NS(=O)(=O)C(F)(F)F)c(=O)on1Cc1ccsc1 [Compound 1-232]
Herbicidal rate (%) Echinochloa crus-galli (Echinochloa crus-galli [1]): 90% | Herbicidal rate (%) Scirpus juncoides (Scirpus juncoides [2]): 90% | Herbicidal rate (%) Lindernia pyxidaria [3]: 80% | Herbicidal rate (%) Monochoria vaginalis [3]: 90% | Herbicidal rate (%) Echinochloa crus-galli (Echinochloa crus-galli [4]): 70% | Herbicidal rate (%) Scirpus juncoides (Scirpus juncoides [5]): 60% | Herbicidal rate (%) Lindernia pyxidaria [6]: 40% | Herbicidal rate (%) Monochoria vaginalis [6]: 40%

Cc1c(Cc2ccccc2N(S(=O)(=O)C(F)(F)F)S(=O)(=O)C(F)(F)F)c(=O)on1CC(F)(F)c1ccccc1 [Compound 1-1047]
Herbicidal rate (%) Echinochloa crus-galli (Echinochloa crus-galli [1]): 90% | Herbicidal rate (%) Scirpus juncoides (Scirpus juncoides [2]): 90% | Herbicidal rate (%) Lindernia pyxidaria [3]: 100% | Herbicidal rate (%) Monochoria vaginalis [3]: 80% | Herbicidal rate (%) Echinochloa crus-galli (Echinochloa crus-galli [4]): 80% | Herbicidal rate (%) Scirpus juncoides (Scirpus juncoides [5]): 80% | Herbicidal rate (%) Lindernia pyxidaria [6]: 90% | Herbicidal rate (%) Monochoria vaginalis [6]: 80%

Cc1c(Cc2ccccc2N(S(=O)(=O)C(F)(F)F)S(=O)(=O)C(F)(F)F)c(=O)on1Cc1ccc(OC(F)(F)F)cc1 [Compound 1-1023]
Herbicidal rate (%) Echinochloa crus-galli (Echinochloa crus-galli [1]): 50% | Herbicidal rate (%) Scirpus juncoides (Scirpus juncoides [2]): 50% | Herbicidal rate (%) Lindernia pyxidaria [3]: 40% | Herbicidal rate (%) Monochoria vaginalis [3]: 50% | Herbicidal rate (%) Echinochloa crus-galli (Echinochloa crus-galli [4]): 40% | Herbicidal rate (%) Scirpus juncoides (Scirpus juncoides [5]): 40% | Herbicidal rate (%) Lindernia pyxidaria [6]: 40% | Herbicidal rate (%) Monochoria vaginalis [6]: 40%

CC(C)c1c(Cc2ccccc2N(S(=O)(=O)C(F)(F)F)S(=O)(=O)C(F)(F)F)c(=O)on1C(C)C [Compound 1-69]
Herbicidal rate (%) Echinochloa crus-galli (Echinochloa crus-galli [1]): 80% | Herbicidal rate (%) Scirpus juncoides (Scirpus juncoides [2]): 90% | Herbicidal rate (%) Lindernia pyxidaria [3]: 70% | Herbicidal rate (%) Monochoria vaginalis [3]: 70% | Herbicidal rate (%) Echinochloa crus-galli (Echinochloa crus-galli [4]): 60% | Herbicidal rate (%) Scirpus juncoides (Scirpus juncoides [5]): 60% | Herbicidal rate (%) Lindernia pyxidaria [6]: 40% | Herbicidal rate (%) Monochoria vaginalis [6]: 60%

Cc1c(Cc2ccccc2NS(=O)(=O)C(F)(F)F)c(=O)on1C(C)c1ccc(Cl)cc1 (stereo not shown) [Compound 1-207]
Herbicidal rate (%) Echinochloa crus-galli (Echinochloa crus-galli [1]): 100% | Herbicidal rate (%) Scirpus juncoides (Scirpus juncoides [2]): 90% | Herbicidal rate (%) Lindernia pyxidaria [3]: 100% | Herbicidal rate (%) Monochoria vaginalis [3]: 100% | Herbicidal rate (%) Echinochloa crus-galli (Echinochloa crus-galli [4]): 60% | Herbicidal rate (%) Scirpus juncoides (Scirpus juncoides [5]): 70% | Herbicidal rate (%) Lindernia pyxidaria [6]: 60% | Herbicidal rate (%) Monochoria vaginalis [6]: 70%

Cc1c(Cc2cc(F)ccc2NS(=O)(=O)C(F)(F)F)c(=O)on1Cc1ccccc1 [Compound 1-31]
Herbicidal rate (%) Echinochloa crus-galli (Echinochloa crus-galli [1]): 90% | Herbicidal rate (%) Scirpus juncoides (Scirpus juncoides [2]): 90% | Herbicidal rate (%) Lindernia pyxidaria [3]: 90% | Herbicidal rate (%) Monochoria vaginalis [3]: 80% | Herbicidal rate (%) Echinochloa crus-galli (Echinochloa crus-galli [4]): 50% | Herbicidal rate (%) Scirpus juncoides (Scirpus juncoides [5]): 70% | Herbicidal rate (%) Lindernia pyxidaria [6]: 60% | Herbicidal rate (%) Monochoria vaginalis [6]: 80%

Cc1c(Cc2ccccc2NS(=O)(=O)C(F)(F)F)c(=O)on1Cc1ccc(F)cc1Cl [Compound 1-201]
Herbicidal rate (%) Echinochloa crus-galli (Echinochloa crus-galli [1]): 90% | Herbicidal rate (%) Scirpus juncoides (Scirpus juncoides [2]): 100% | Herbicidal rate (%) Lindernia pyxidaria [3]: 90% | Herbicidal rate (%) Monochoria vaginalis [3]: 80% | Herbicidal rate (%) Echinochloa crus-galli (Echinochloa crus-galli [4]): 40% | Herbicidal rate (%) Scirpus juncoides (Scirpus juncoides [5]): 40% | Herbicidal rate (%) Lindernia pyxidaria [6]: 70% | Herbicidal rate (%) Monochoria vaginalis [6]: 70%

Cc1c(Cc2ccccc2N(S(=O)(=O)C(F)(F)F)S(=O)(=O)C(F)(F)F)c(=O)on1Cc1cccc(C(F)(F)F)c1 [Compound 1-1020]
Herbicidal rate (%) Echinochloa crus-galli (Echinochloa crus-galli [1]): 50% | Herbicidal rate (%) Scirpus juncoides (Scirpus juncoides [2]): 40% | Herbicidal rate (%) Lindernia pyxidaria [3]: 80% | Herbicidal rate (%) Monochoria vaginalis [3]: 40% | Herbicidal rate (%) Echinochloa crus-galli (Echinochloa crus-galli [4]): 60% | Herbicidal rate (%) Scirpus juncoides (Scirpus juncoides [5]): 40% | Herbicidal rate (%) Lindernia pyxidaria [6]: 40% | Herbicidal rate (%) Monochoria vaginalis [6]: 40%

Cc1c(Cc2ccccc2N(S(=O)(=O)C(F)(F)F)S(=O)(=O)C(F)(F)F)c(=O)on1Cc1ccc(Cl)cc1 [Compound 1-1015]
Herbicidal rate (%) Echinochloa crus-galli (Echinochloa crus-galli [1]): 90% | Herbicidal rate (%) Scirpus juncoides (Scirpus juncoides [2]): 90% | Herbicidal rate (%) Lindernia pyxidaria [3]: 100% | Herbicidal rate (%) Monochoria vaginalis [3]: 90% | Herbicidal rate (%) Echinochloa crus-galli (Echinochloa crus-galli [4]): 70% | Herbicidal rate (%) Scirpus juncoides (Scirpus juncoides [5]): 90% | Herbicidal rate (%) Lindernia pyxidaria [6]: 90% | Herbicidal rate (%) Monochoria vaginalis [6]: 90%

Cc1c(Cc2ccccc2N(S(=O)(=O)C(F)(F)F)S(=O)(=O)C(F)(F)F)c(=O)on1C(C)c1ccc(F)cc1F (stereo not shown) [Compound 1-1037]
Herbicidal rate (%) Echinochloa crus-galli (Echinochloa crus-galli [1]): 90% | Herbicidal rate (%) Scirpus juncoides (Scirpus juncoides [2]): 90% | Herbicidal rate (%) Lindernia pyxidaria [3]: 70% | Herbicidal rate (%) Monochoria vaginalis [3]: 60% | Herbicidal rate (%) Echinochloa crus-galli (Echinochloa crus-galli [4]): 90% | Herbicidal rate (%) Scirpus juncoides (Scirpus juncoides [5]): 60% | Herbicidal rate (%) Lindernia pyxidaria [6]: 60% | Herbicidal rate (%) Monochoria vaginalis [6]: 50%

Cc1c(Cc2ccccc2N(S(=O)(=O)C(F)(F)F)S(=O)(=O)C(F)(F)F)c(=O)on1CCc1ccccc1 [Compound 1-1043]
Herbicidal rate (%) Echinochloa crus-galli (Echinochloa crus-galli [1]): 100% | Herbicidal rate (%) Scirpus juncoides (Scirpus juncoides [2]): 90% | Herbicidal rate (%) Lindernia pyxidaria [3]: 100% | Herbicidal rate (%) Monochoria vaginalis [3]: 100% | Herbicidal rate (%) Echinochloa crus-galli (Echinochloa crus-galli [4]): 90% | Herbicidal rate (%) Scirpus juncoides (Scirpus juncoides [5]): 90% | Herbicidal rate (%) Lindernia pyxidaria [6]: 100% | Herbicidal rate (%) Monochoria vaginalis [6]: 100%

Cc1c(Cc2ccccc2N(S(=O)(=O)C(F)(F)F)S(=O)(=O)C(F)(F)F)c(=O)on1C(C)c1cccc(Cl)c1 (stereo not shown) [Compound 1-1033]
Herbicidal rate (%) Echinochloa crus-galli (Echinochloa crus-galli [1]): 90% | Herbicidal rate (%) Scirpus juncoides (Scirpus juncoides [2]): 90% | Herbicidal rate (%) Lindernia pyxidaria [3]: 100% | Herbicidal rate (%) Monochoria vaginalis [3]: 100% | Herbicidal rate (%) Echinochloa crus-galli (Echinochloa crus-galli [4]): 70% | Herbicidal rate (%) Scirpus juncoides (Scirpus juncoides [5]): 80% | Herbicidal rate (%) Lindernia pyxidaria [6]: 80% | Herbicidal rate (%) Monochoria vaginalis [6]: 80%

Cc1c(Cc2ccccc2NS(=O)(=O)C(F)(F)F)c(=O)on1C(C)c1ccsc1 (stereo not shown) [Compound 1-235]
Herbicidal rate (%) Echinochloa crus-galli (Echinochloa crus-galli [1]): 90% | Herbicidal rate (%) Scirpus juncoides (Scirpus juncoides [2]): 80% | Herbicidal rate (%) Lindernia pyxidaria [3]: 60% | Herbicidal rate (%) Monochoria vaginalis [3]: 80% | Herbicidal rate (%) Echinochloa crus-galli (Echinochloa crus-galli [4]): 50% | Herbicidal rate (%) Scirpus juncoides (Scirpus juncoides [5]): 60% | Herbicidal rate (%) Lindernia pyxidaria [6]: 40% | Herbicidal rate (%) Monochoria vaginalis [6]: 60%

CCC(CC)Cn1oc(=O)c(Cc2ccccc2N(CC)S(=O)(=O)C(F)(F)F)c1C [Compound 1-264]
Herbicidal rate (%) Echinochloa crus-galli (Echinochloa crus-galli [1]): 90% | Herbicidal rate (%) Scirpus juncoides (Scirpus juncoides [2]): 100% | Herbicidal rate (%) Lindernia pyxidaria [3]: 80% | Herbicidal rate (%) Monochoria vaginalis [3]: 90% | Herbicidal rate (%) Echinochloa crus-galli (Echinochloa crus-galli [4]): 80% | Herbicidal rate (%) Scirpus juncoides (Scirpus juncoides [5]): 90% | Herbicidal rate (%) Lindernia pyxidaria [6]: 50% | Herbicidal rate (%) Monochoria vaginalis [6]: 80%
